Laboratory results reported in US9944602B2, “Piperidinone herbicides” (E. I. DU PONT DE NEMOURS AND COMPANY, priority 2014, dated 2018).

Assays:
Format in all cases: in vivo
[1] = system: pigweed (Amaranthus retroflexus); experiment: Test A preemergence pigweed; settings: 0 to 100 scale, 0 no effect, 100 complete control
How it was run: (§1)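 Scores reflect visual comparison with untreated controls after ~10 d in the greenhouse (0 none, 100 complete control). Treatment was a surfactant-containing non-phytotoxic solvent formulation, sprayed onto soil after seeding or onto seedlings at one to two leaves, 2–10 cm tall.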

[2] = system: crabgrass, large (large crabgrass, Digitaria sanguinalis); experiment: Test A preemergence crabgrass, large; settings: 0 to 100 scale; for Crabgrass, Large plant response rating: 125 g ai/ha, 0 no effect, 100 complete control; for Plant response rating, Crabgrass, Large: 500 g ai/ha, 0 is no effect, 100 is complete control
From the text: (§2) Seeds of plant species selected from barnyardgrass (Echinochloa crus-galli), kochia (Kochia scoparia), ragweed (common ragweed, Ambrosia elatior), ryegrass, Italian (Italian ryegrass, Lolium multiflorum), crabgrass, large (large crabgrass, Digitaria sanguinalis), foxtail, giant (giant foxtail, Setaria faberii), morningglory (Ipomoea spp.), pigweed (Amaranthus retroflexus), velvetleaf (Abutilon theophrasti), wheat (Triticum aestivum), and corn (Zea mays) were planted into a blend of loam soil and sand and treated preemergence with a directed soil spray using test chemicals formulated in a non-phytotoxic solvent mixture which included a surfactant.
(§3) At the same time, plants selected from these crop and weed species and also blackgrass (Alopecurus myosuroides), and galium (catchweed bedstraw, Galium aparine) were planted in pots containing the same blend of loam soil and sand and treated with postemergence applications of test chemicals formulated in the same manner. Plants ranged in height from 2 to 10 cm and were in the one- to two-leaf stage for the postemergence treatment. Treated plants and untreated controls were maintained in a greenhouse for approximately 10 d, after which time all treated plants were compared to untreated controls and visually evaluated for injury. Plant response ratings, summarized in Table A, are based on a 0 to 100 scale where 0 is no effect and 100 is complete control. A dash (-) response means no test result.

[3] = system: foxtail, giant (giant foxtail, Setaria faberii); experiment: Test A preemergence foxtail, giant; settings: 0 to 100 scale, 0 no effect, 100 complete control
How it was run: as §1

[4] = system: pigweed (Amaranthus retroflexus); experiment: Test A postemergence pigweed; settings: 0 to 100 scale, 0 is no effect, 100 is complete control
How it was run: as §1

[5] = system: foxtail, giant (giant foxtail, Setaria faberii); experiment: Test A postemergence foxtail, giant; settings: 0 to 100 scale, 0 is no effect, 100 is complete control
How it was run: as §1

[6] = system: barnyardgrass (Echinochloa crus-galli); experiment: Test B flooded paddy test barnyardgrass; settings: Table B, Flood, 250 g ai/ha, scale 0 to 100
How it was run: (§4)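 Once seedlings reached two leaves, pots were flooded 3 cm deep and treated via the paddy water, which remained at that level. Evaluation was visual, against controls, after 13 to 15 d under greenhouse conditions.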

[7] = system: barnyardgrass (Echinochloa crus-galli); experiment: Test A preemergence barnyardgrass; settings: 0 to 100 scale; for Barnyardgrass plant response rating: 125 g ai/ha, 0 no effect, 100 complete control; for Plant response rating, Barnyardgrass: 500 g ai/ha, 0 is no effect, 100 is complete control
How it was run: as §1

[8] = system: velvetleaf (Abutilon theophrasti); experiment: Test A postemergence velvetleaf; settings: 0 to 100 scale, 0 is no effect, 100 is complete control
From the text: as §2, §3

rice (Oryza sativa) = experiment: Test B flooded paddy test rice; settings: Table B, Flood, 250 g ai/ha, scale 0 to 100
How it was run: as §4

[9] = system: ducksalad (Heteranthera limosa); experiment: Test B flooded paddy test ducksalad; settings: Table B, Flood, 250 g ai/ha, scale 0 to 100
How it was run: as §4

[10] = system: morningglory (Ipomoea spp.); experiment: Test A preemergence morningglory; settings: 0 to 100 scale, 0 no effect, 100 complete control
From the text: as §2, §3

[11] = system: wheat (Triticum aestivum); experiment: Test A preemergence wheat; settings: 0 to 100 scale, 0 no effect, 100 complete control
From the text: as §2, §3

[12] = system: velvetleaf (Abutilon theophrasti); experiment: Test A preemergence velvetleaf; settings: 0 to 100 scale, 0 no effect, 100 complete control
From the text: as §2, §3

[13] = system: crabgrass, large (large crabgrass, Digitaria sanguinalis); experiment: Test A postemergence crabgrass, large; settings: 0 to 100 scale, 0 is no effect, 100 is complete control
From the text: as §2, §3

[14] = system: sedge, umbrella (small-flower umbrella sedge, Cyperus difformis); experiment: Test B flooded paddy test sedge, umbrella; settings: Table B, Flood, 250 g ai/ha, scale 0 to 100
How it was run: as §4

corn (Zea mays) [15] = experiment: Test A preemergence corn; settings: 0 to 100 scale; for Corn plant response rating: 125 g ai/ha, 0 no effect, 100 complete control; for Plant response rating, Corn: 500 g ai/ha, 0 is no effect, 100 is complete control
From the text: as §2, §3

corn (Zea mays) [16] = experiment: Test A postemergence corn; settings: 0 to 100 scale, 0 is no effect, 100 is complete control
How it was run: as §1

[17] = system: wheat (Triticum aestivum); experiment: Test A postemergence wheat; settings: 0 to 100 scale, 0 is no effect, 100 is complete control
How it was run: as §1

[18] = system: morningglory (Ipomoea spp.); experiment: Test A postemergence morningglory; settings: 0 to 100 scale, 0 is no effect, 100 is complete control
From the text: as §2, §3

[19] = system: barnyardgrass (Echinochloa crus-galli); experiment: Test A postemergence barnyardgrass; settings: 0 to 100 scale, 0 is no effect, 100 is complete control
How it was run: as §1

| Compound | Pigweed plant response rating ([1]; 125 g ai/ha) | Pigweed plant response rating ([1]; 500 g ai/ha) | Crabgrass, Large plant response rating [2] | Plant response rating, Crabgrass, Large [2] | Foxtail, Giant plant response rating ([3]; 125 g ai/ha) | Foxtail, Giant plant response rating ([3]; 500 g ai/ha) | Plant response rating, Pigweed ([4]; 125 g ai/ha) | Plant response rating, Pigweed ([4]; 500 g ai/ha) | Plant response rating, Foxtail, Giant ([5]; 125 g ai/ha) | Plant response rating, Foxtail, Giant ([5]; 500 g ai/ha) | Plant response rating [6] | Barnyardgrass plant response rating [7] | Plant response rating, Barnyardgrass [7] | Plant response rating, Velvetleaf ([8]; 125 g ai/ha) | Plant response rating, Velvetleaf ([8]; 500 g ai/ha) | Plant response rating (rice (Oryza sativa)) | Plant response rating [9] | Morningglory plant response rating ([10]; 125 g ai/ha) | Morningglory plant response rating ([10]; 500 g ai/ha) | Wheat plant response rating ([11]; 125 g ai/ha) | other results |
| --- | --- | --- | --- | --- | --- | --- | --- | --- | --- | --- | --- | --- | --- | --- | --- | --- | --- | --- | --- | --- | --- |
| O=C1NCCC(c2ccc(F)c(F)c2)C1C(=O)Nc1ccccc1F (racemic) [Compound 1] | 0 | 0 | 80 | 90 | 30 | 90 | 0 | 0 | 0 | 0 | 0 | 0 | 70 | 0 | 0 | 0 | 0 | 0 | 0 | 0 | Wheat plant response rating ([11]; 500 g ai/ha): 0; Velvetleaf plant response rating ([12]; 125 g ai/ha): 0; Velvetleaf plant response rating ([12]; 500 g ai/ha): 0; Plant response rating, Crabgrass, Large ([13]; 125 g ai/ha): 30; Plant response rating, Crabgrass, Large ([13]; 500 g ai/ha): 70; Plant response rating [14]: 0; Corn plant response rating (corn (Zea mays) [15]): 0; Plant response rating, Corn (corn (Zea mays) [15]): 0; Plant response rating, Corn (corn (Zea mays) [16]; 125 g ai/ha): 0; Plant response rating, Corn (corn (Zea mays) [16]; 500 g ai/ha): 0; Plant response rating, Wheat ([17]; 125 g ai/ha): 0; Plant response rating, Wheat ([17]; 500 g ai/ha): 0; Plant response rating, Morningglory ([18]; 125 g ai/ha): 0; Plant response rating, Morningglory ([18]; 500 g ai/ha): 0; Plant response rating, Barnyardgrass ([19]; 125 g ai/ha): 0; Plant response rating, Barnyardgrass ([19]; 500 g ai/ha): 50 |
| O=C1NCCC(c2ccccc2)C1C(=O)Nc1ccccc1C(F)(F)F (racemic) [Compound 2] | 0 | 0 | 70 | 90 | 10 | 70 | 0 | 0 | 0 | 0 | 0 | 0 | 20 | 0 | 0 | 0 | 0 | 0 | 0 | 0 | Wheat plant response rating ([11]; 500 g ai/ha): 0; Velvetleaf plant response rating ([12]; 125 g ai/ha): 0; Velvetleaf plant response rating ([12]; 500 g ai/ha): 0; Plant response rating, Crabgrass, Large ([13]; 125 g ai/ha): 0; Plant response rating, Crabgrass, Large ([13]; 500 g ai/ha): 10; Plant response rating [14]: 0; Corn plant response rating (corn (Zea mays) [15]): 0; Plant response rating, Corn (corn (Zea mays) [15]): 0; Plant response rating, Corn (corn (Zea mays) [16]; 125 g ai/ha): 0; Plant response rating, Corn (corn (Zea mays) [16]; 500 g ai/ha): 0; Plant response rating, Wheat ([17]; 125 g ai/ha): 0; Plant response rating, Wheat ([17]; 500 g ai/ha): 0; Plant response rating, Morningglory ([18]; 125 g ai/ha): 0; Plant response rating, Morningglory ([18]; 500 g ai/ha): 0; Plant response rating, Barnyardgrass ([19]; 125 g ai/ha): 0; Plant response rating, Barnyardgrass ([19]; 500 g ai/ha): 0 |
